Measured values reported in ChEMBL document CHEMBL1201862, “PubChem BioAssay data set” (2004).
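How tested: cells in 96-well plates exposed to compound for 48 hours at five concentrations. Abbreviation: GI50, concentration required for 50% inhibition of growth.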 Active and inactive are the calls of the source. No stated cut-off is given here; in the data, active = GI50 up to about 1.1 µM and inactive = higher.

Legend:
Test in all cases: DTP human tumour cell line panel, 48 h
[1] = tested on: SK-MEL-28
[2] = tested on: HOP-62
[3] = tested on: HL-60
[4] = tested on: SNB-19
[5] = tested on: SF-295
[6] = tested on: MOLT-4
[7] = tested on: BT-549
[8] = tested on: TK-10
[9] = tested on: SNB-75
[10] = tested on: HCT-15
[11] = tested on: EKVX
[12] = tested on: MDA-MB-231
[13] = tested on: SF-539
[14] = tested on: SK-MEL-5
[15] = tested on: SF-268
[16] = tested on: MCF7
[17] = tested on: OVCAR-8
[18] = tested on: PC-3
[19] = tested on: RXF 393
[20] = tested on: NCI-H460

Compound | GI50 [1] | GI50 [2] | GI50 [3] | GI50 [4] | GI50 [5] | GI50 [6] | GI50 [7] | GI50 [8] | GI50 [9] | GI50 [10] [µM] | GI50 [11] | GI50 [12] | GI50 [13] | GI50 [14] | GI50 [15] | GI50 [16] | GI50 [17] | GI50 [18] | GI50 [19] | GI50 [20]
C=C(CN(C)C)C(=O)c1ccc(OC2OC(COC(C)=O)C(OC(C)=O)C(OC(C)=O)C2OC(C)=O)cc1 (stereo not given) | 2.52 µM (inactive) | 15.3 µM (inactive) | 0.456 µM (active) | 19.8 µM (inactive) | 21.3 µM (inactive) | 0.54 µM (active) | 2.61 µM (inactive) | 3.39 µM (inactive) | 11.4 µM (inactive) | 3.03 | 11.8 µM (inactive) | 5 µM (inactive) | 10.1 µM (inactive) | 6.37 µM (inactive) | 19.7 µM (inactive) | 1.77 µM (inactive) | 4.21 µM (inactive) | 15.3 µM (inactive) | 1.76 µM (inactive) | 20.1 µM (inactive)
NC(CSC1(c2ccc(Cl)cc2)c2ccccc2-c2ccccc21)C(=O)O (stereo not given) | > 100 µM (inactive) | 18.7 µM (inactive) | 6.4 µM (inactive) | 21.3 µM (inactive) | 15.3 µM (inactive) | 20 µM (inactive) | 18.2 µM (inactive) | 24.8 µM (inactive) | 22.2 µM (inactive) | 21.6 | 67.1 µM (inactive) | 18 µM (inactive) | 20.9 µM (inactive) | 16.2 µM (inactive) | 20.5 µM (inactive) | 17.6 µM (inactive) | 17.7 µM (inactive) | 18.3 µM (inactive) | 31.6 µM (inactive) | 18.1 µM (inactive)
O=C(Cn1c(=O)oc2ccccc21)N(c1ccccc1)c1ccccc1 | > 100 µM (inactive) | > 100 µM (inactive) | > 100 µM (inactive) | > 100 µM (inactive) | > 100 µM (inactive) | > 100 µM (inactive) | > 100 µM (inactive) | > 100 µM (inactive) | 11.5 µM (inactive) | > 100 | 11.9 µM (inactive) | > 100 µM (inactive) | 88.9 µM (inactive) | > 100 µM (inactive) | 67.5 µM (inactive) | > 100 µM (inactive) | 52.8 µM (inactive) | > 100 µM (inactive) | > 100 µM (inactive) | > 100 µM (inactive)
CCCC[C@H]1C(=O)O[C@H](C)[C@H](NC(=O)c2cccc(NC=O)c2OC)C(=O)O[C@@H](C)[C@@H]1OC(=O)C(C)CC.CCCC[C@H]1C(=O)O[C@H](C)[C@H](NC(=O)c2cccc(NC=O)c2OC)C(=O)O[C@@H](C)[C@@H]1OC(=O)CC(C)C (stereo not given in full) | 21.6 µM (inactive) | 17.8 µM (inactive) | 10.6 µM (inactive) | 9.44 µM (inactive) | 7.45 µM (inactive) | 11.2 µM (inactive) | 16.8 µM (inactive) | 12.9 µM (inactive) | 8.02 µM (inactive) | 12.8 | 11 µM (inactive) | 12.1 µM (inactive) | 15.8 µM (inactive) | 12 µM (inactive) | 14.2 µM (inactive) | 12.5 µM (inactive) | 12.9 µM (inactive) | 9.42 µM (inactive) | 14.1 µM (inactive) | 5.35 µM (inactive)
Cc1cc(C)c2nc3c(c(C(O)C4CCCCN4)c2c1)CC/C3=C\c1ccc(Cl)cc1 (stereo not given) | > 100 µM (inactive) | 75.9 µM (inactive) | 10.7 µM (inactive) | > 100 µM (inactive) | 73.1 µM (inactive) | 26.7 µM (inactive) | > 100 µM (inactive) | > 100 µM (inactive) | 54 µM (inactive) | 58.7 | 43.2 µM (inactive) | 73.3 µM (inactive) | > 100 µM (inactive) | 28.9 µM (inactive) | > 100 µM (inactive) | 46.6 µM (inactive) | 58.6 µM (inactive) | 54.1 µM (inactive) | 27.7 µM (inactive) | 32.6 µM (inactive)
C/C=C(\C)C(=O)OC1C2C(C)C(=O)OC2C(O)C(C)C2C=CC(=O)C21C (stereo not given) | 14.1 µM (inactive) | 18.2 µM (inactive) | 3.24 µM (inactive) | 13.2 µM (inactive) | 14.7 µM (inactive) | 8.47 µM (inactive) | 7.5 µM (inactive) | 12.5 µM (inactive) | 15.8 µM (inactive) | 10.6 | 11.7 µM (inactive) | 3.69 µM (inactive) | 9.27 µM (inactive) | 7.46 µM (inactive) | 18.6 µM (inactive) | 7.85 µM (inactive) | 11.9 µM (inactive) | 16.8 µM (inactive) | 8.73 µM (inactive) | 4.49 µM (inactive)
CCCCC(=O)N/S(=N/C(=O)c1ccccc1)C(Cl)(Cl)Cl (stereo not given) | > 100 µM (inactive) | > 100 µM (inactive) | 79.1 µM (inactive) | > 100 µM (inactive) | > 100 µM (inactive) | > 100 µM (inactive) | > 100 µM (inactive) | > 100 µM (inactive) | > 100 µM (inactive) | > 100 | > 100 µM (inactive) | > 100 µM (inactive) | > 100 µM (inactive) | > 100 µM (inactive) | > 100 µM (inactive) | > 100 µM (inactive) | > 100 µM (inactive) | > 100 µM (inactive) | > 100 µM (inactive) | > 100 µM (inactive)
CC(=O)NC1C(O)C(O)C(CO)OC1n1nc(SCc2ccccc2)c(=O)[nH]c1=O (stereo not given) | > 100 µM (inactive) | > 100 µM (inactive) | > 100 µM (inactive) | > 100 µM (inactive) | > 100 µM (inactive) | > 100 µM (inactive) | > 100 µM (inactive) | > 100 µM (inactive) | > 65 µM (inactive) | > 100 | > 100 µM (inactive) | > 100 µM (inactive) | > 100 µM (inactive) | > 100 µM (inactive) | > 100 µM (inactive) | > 100 µM (inactive) | > 100 µM (inactive) | > 100 µM (inactive) | > 100 µM (inactive) | > 100 µM (inactive)
